In patent publication US20250062040A1, “COMPUTER-BASED SYSTEMS FOR ACQUIRING AND ANALYZING OBS[…] DATA” (priority 2021, published 2025):

Columns and labels:
Male SD rats = test: rat forced swim test, long lasting antidepressant-like effects; type: in vivo; settings: vs vehicle group, p<0.05; IP 24 H prior to testing; ketamine 10 mg/kg, Enantiomer I2 30 mg/kg
Experimental: Male SD rats from Envigo (IN) were used in the study. Ketamine (10 mg/kg) was dissolved in saline and administered IP at a dose volume of 1 ml/kg 24 H prior testing. Enantiomer I2 was dissolved in PBS and administered IP at a dose volume of 1 ml/kg 24 H prior to testing. Videos were scored by an observer blinded to the treatment and frequency of immobility, climbing and swimming were measured. Data were analyzed by ANOVA followed by post hoc analysis where appropriate.

[1] = pEEG spectral power signature; type: in vivo; settings: 2-h post-injection, normalized against baseline, different doses, FIG. 21
Experimental: In some embodiments, pEEG may be recorded 1 hour before drug administration and for 2 hours after drug administration from all recorded brain regions simultaneously. To maximize the clinical translatability of a pEEG preclinical database, the frontal cortex and parietal cortex can be selected without limitation. ECoG EEG from these electrodes may be shown to offer direct rodent-to-human translation. Additionally, the hippocampus and striatum can be targeted for indwelling local field potential (LFP) recordings to investigate pharmacological responses on brain regions known to be innervated by different neurotransmitter systems.
In some embodiments, pEEG data consumed by a behavioral platform classier or other machine learning model can be processed first to remove artifacts. […] The average standard frequency bands are shown in Table IV listing the analyzed standard frequency bands. […]
In some embodiments, a normalization against the baseline pre-drug may be convenient, although other types of normalization may be used without limitation. pEEG and accelerometer spectrums can be normalized to the corresponding mean value x_mean during the pre-dosing interval [0, 1 hour](baseline): x_norm=(x−x_mean)/x_mean. For both pEEG and accelerometer data, the post-dosing features (obtained during the 2-hour post-dosing period) can be expressed as percent change from pre-dose baseline. […]

[2] = eye temperature by automated thermographic system of behavioral platform; type: in vivo, mice; settings: 1 mg/kg intraperitoneally, tested after 15 minutes, 45-minute session, vs vehicle, FIG. 37
Text: In some embodiments, with regard to image calibration, in an experimental session, actual Peltier temperatures may be logged and saved along with the thermal camera video. The logged Peltier temperatures in Celsius can be paired to the optical density (OD) levels measured at the two Peltier ROIs in each corresponding frame, so that a linear calibration curve can be used to convert the OD of measured eye ROIs to degrees Celsius.
In some embodiments, the subject body, such as a mouse, can be segmented based on the optical density distribution on each frame. The contour of the mouse can be masked by finding the largest eight-connected objects in the binarized image as shown in FIG. 36. […] The size of the eye region relative to the mask and shape properties such as ‘Eccentricity’ (ratio of the distance between the foci of the ellipse and its major axis length) and ‘Solidity’ (proportion of the pixels in the convex hull that are also in the region, computed as Area/ConvexArea) can be measured to filter out false positives, when those parameters may be outside of the range learned from manually annotated ground truth examples.
In some embodiments, with regard to feature extraction, the average OD of automatically detected eye ROIs can be converted to Celsius based on the calibration curve. […]

[3] = core temperature by rectal temperature measurement; type: in vivo, mice; settings: 1 mg/kg intraperitoneally; before injection vs just prior to thermal camera recording
Experimental: In some embodiments, a validation experiment can test whether this method may effectively detect changes in body temperature induced by drugs from thermal videos. In one such test, two groups of mice can be treated with chlorpromazine 1 mg/kg (n=13) or vehicle (n=14) intraperitoneally, and tested after 15 minutes under the thermal camera system. An average change of 0.9 degree Celsius in core temperature was observed by measuring rectal temperature of animals before injection and just prior to their thermal camera recording.

Row | Compound | frequency of immobility in the forced swim (Male SD rats) | frequency of swimming in the forced swim (Male SD rats) | change in pEEG power of high frequencies (gamma) [1] | estimated eye temperature [2] | average change in core temperature (rectal temperature) [3]
1 | CNC1(c2ccccc2Cl)CCCCC1=O (centres unmarked) [ketamine] | reduced immobility | increased swimming | dose-dependent short-term increase |  | 
2 | CN(C)CCCN1c2ccccc2Sc2ccc(Cl)cc21 [chlorpromazine] |  |  |  | decrease of estimated eye temperature | 0.9 degree Celsius
